Laboratory results reported in ChEMBL document CHEMBL1201862, “PubChem BioAssay data set” (2004).
Activity calls are given as the source filed them.

Legend:
[1] = target: NAD-dependent protein deacylase sirtuin-5, mitochondrial (Homo sapiens, UniProt Q9NXA8); assay: sirtuin-5 deacylation blockers, concentration series – biochemical, fluorescence imaging, cherry-pick, set 5, dose response (AID 720591);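 also: desuccinylation of succinyl peptide AMC substrate read as fluorescence after trypsin release; potency of inhibitors that lower fluorescence and may act on trypsin instead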
Sequence of NAD-dependent protein deacylase sirtuin-5, mitochondrial (Q9NXA8 whole entry): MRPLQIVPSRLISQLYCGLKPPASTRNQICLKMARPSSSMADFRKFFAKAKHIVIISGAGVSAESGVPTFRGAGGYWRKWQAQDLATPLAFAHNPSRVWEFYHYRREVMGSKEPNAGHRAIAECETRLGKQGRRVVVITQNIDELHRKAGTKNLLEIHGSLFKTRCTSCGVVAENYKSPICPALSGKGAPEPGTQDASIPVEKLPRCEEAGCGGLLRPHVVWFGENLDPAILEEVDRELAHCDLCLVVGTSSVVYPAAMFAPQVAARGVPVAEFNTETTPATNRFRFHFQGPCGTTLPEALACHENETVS

[2] = target: T1, Short transient receptor potential channel 4 (Mus musculus, UniProt Q9QUQ5); assay: block of DAMGO-driven TRPC4 calcium entry – cell-based, HEK293 TRPC4/mu-opioid, Fluo-4 calcium, dose response (AID 434942); type: functional;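 also: potency of inhibitors blocking the TRPC4 calcium response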
T1 sequence (Q9QUQ5 whole entry): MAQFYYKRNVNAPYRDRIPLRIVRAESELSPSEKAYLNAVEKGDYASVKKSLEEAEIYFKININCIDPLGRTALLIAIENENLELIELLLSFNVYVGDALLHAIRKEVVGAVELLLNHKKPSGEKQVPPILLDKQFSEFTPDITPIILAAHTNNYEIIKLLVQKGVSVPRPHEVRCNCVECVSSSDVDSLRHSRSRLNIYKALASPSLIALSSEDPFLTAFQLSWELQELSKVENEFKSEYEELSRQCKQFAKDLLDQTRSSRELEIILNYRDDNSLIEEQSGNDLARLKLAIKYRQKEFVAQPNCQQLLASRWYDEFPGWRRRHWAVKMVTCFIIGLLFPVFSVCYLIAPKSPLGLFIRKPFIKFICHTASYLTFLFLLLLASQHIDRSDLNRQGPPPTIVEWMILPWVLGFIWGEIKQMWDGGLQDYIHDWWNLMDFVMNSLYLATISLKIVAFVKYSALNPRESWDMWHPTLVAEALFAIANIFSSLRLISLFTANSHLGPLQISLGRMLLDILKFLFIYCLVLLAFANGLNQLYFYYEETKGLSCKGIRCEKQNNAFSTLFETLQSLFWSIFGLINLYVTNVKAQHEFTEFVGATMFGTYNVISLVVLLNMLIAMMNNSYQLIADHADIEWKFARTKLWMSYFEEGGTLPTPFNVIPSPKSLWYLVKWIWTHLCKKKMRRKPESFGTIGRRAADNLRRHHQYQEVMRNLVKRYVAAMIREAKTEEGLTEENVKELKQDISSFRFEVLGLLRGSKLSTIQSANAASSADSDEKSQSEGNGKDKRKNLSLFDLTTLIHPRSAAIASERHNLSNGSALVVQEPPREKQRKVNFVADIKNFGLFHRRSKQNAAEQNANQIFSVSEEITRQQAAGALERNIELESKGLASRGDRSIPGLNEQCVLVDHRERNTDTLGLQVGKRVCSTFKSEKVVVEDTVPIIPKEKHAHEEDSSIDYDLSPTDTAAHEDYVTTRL

[3] = target: T2, DNA repair and recombination protein RAD54-like (Homo sapiens, UniProt Q92698); assay: RAD54 Holliday junction migration blockers – biochemical, fluorescence, cherry-picked samples, dose series, confirmation (AID 651657); type: functional
T2 sequence (Q92698 whole entry): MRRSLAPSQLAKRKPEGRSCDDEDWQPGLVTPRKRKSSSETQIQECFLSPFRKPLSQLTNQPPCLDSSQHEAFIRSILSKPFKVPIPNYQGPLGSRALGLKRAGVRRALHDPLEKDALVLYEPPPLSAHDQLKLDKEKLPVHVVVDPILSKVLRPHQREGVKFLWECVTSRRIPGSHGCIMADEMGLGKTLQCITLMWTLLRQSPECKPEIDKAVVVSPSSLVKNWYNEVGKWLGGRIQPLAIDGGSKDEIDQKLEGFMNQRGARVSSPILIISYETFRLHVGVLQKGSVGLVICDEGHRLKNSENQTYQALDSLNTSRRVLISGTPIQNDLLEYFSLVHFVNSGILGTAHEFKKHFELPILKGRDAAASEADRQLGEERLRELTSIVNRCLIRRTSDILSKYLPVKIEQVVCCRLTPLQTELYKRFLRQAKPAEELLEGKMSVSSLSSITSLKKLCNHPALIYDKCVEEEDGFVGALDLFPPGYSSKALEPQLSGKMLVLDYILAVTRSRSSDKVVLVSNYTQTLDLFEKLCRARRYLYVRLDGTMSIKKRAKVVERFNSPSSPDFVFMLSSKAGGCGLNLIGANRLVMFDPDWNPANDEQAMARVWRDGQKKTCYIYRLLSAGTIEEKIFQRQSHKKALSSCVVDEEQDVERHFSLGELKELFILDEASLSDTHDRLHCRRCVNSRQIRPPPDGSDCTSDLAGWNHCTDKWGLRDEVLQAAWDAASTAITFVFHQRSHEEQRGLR

[4] = cells
[5] = target: T3, Caspase-3 (Homo sapiens, UniProt P42574); type: functional;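 also: Dose-response selectivity test against caspase-3 for candidate inhibitors of sentrin-specific proteases (SENPs)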
T3 sequence (P42574 whole entry): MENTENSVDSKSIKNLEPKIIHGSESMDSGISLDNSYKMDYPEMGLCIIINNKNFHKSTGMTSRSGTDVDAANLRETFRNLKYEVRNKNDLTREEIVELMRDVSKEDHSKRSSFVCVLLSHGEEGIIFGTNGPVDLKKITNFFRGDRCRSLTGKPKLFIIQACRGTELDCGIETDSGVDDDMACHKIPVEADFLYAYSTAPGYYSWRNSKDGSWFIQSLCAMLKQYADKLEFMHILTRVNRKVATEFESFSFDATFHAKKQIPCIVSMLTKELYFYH

[6] = target: T4, Sentrin-specific protease 7 (Homo sapiens, UniProt Q9BQF6); type: functional;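 also: Luminescence-based dose-response confirmation of ultra-high-throughput screening hits, measuring inhibition of SENP7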
T4 sequence (Q9BQF6 whole entry): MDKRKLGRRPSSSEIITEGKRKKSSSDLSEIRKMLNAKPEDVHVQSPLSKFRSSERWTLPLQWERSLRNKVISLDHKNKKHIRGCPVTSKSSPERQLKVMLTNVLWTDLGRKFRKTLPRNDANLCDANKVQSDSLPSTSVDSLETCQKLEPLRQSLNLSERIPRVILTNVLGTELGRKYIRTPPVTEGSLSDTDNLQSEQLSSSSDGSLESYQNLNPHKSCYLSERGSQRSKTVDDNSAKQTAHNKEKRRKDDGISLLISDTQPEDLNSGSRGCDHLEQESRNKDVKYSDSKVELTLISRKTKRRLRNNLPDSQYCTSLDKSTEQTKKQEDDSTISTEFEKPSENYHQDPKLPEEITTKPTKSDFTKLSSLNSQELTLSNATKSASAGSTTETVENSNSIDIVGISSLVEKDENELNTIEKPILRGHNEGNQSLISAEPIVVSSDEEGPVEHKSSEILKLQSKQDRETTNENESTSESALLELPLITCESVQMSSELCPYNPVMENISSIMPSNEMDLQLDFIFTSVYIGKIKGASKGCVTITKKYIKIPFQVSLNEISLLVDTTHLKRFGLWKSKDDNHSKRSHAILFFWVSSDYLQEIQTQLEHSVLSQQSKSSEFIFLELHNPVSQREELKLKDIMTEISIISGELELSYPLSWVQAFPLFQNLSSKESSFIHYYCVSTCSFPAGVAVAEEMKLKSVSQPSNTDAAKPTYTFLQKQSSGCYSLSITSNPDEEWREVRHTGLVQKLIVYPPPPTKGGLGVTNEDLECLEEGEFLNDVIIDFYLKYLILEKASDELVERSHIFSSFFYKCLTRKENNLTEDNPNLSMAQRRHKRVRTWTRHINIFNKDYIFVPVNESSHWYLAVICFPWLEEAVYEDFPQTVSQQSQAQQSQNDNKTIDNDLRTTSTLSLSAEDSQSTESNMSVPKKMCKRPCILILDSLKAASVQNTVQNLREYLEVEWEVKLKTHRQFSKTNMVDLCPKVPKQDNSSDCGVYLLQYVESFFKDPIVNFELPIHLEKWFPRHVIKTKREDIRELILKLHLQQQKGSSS

[7] = target: T5, Oxysterols receptor LXR-beta (Homo sapiens, UniProt P55055); type: functional, cell-based
T5 sequence (P55055 whole entry): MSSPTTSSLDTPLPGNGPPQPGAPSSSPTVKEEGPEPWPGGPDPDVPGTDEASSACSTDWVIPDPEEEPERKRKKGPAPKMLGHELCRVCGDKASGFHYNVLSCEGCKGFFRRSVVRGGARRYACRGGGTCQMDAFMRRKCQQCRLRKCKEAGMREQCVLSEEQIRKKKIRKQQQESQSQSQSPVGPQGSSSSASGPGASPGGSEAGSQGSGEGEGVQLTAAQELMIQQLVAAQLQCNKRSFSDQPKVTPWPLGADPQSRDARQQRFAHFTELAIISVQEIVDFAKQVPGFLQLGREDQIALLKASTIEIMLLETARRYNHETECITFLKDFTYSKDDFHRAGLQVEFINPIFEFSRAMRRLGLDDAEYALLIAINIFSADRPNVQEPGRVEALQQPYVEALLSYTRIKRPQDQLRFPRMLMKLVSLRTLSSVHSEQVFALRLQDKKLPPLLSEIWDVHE

[8] = target: T6, Sentrin-specific protease 6 (Homo sapiens, UniProt Q9GZR1); type: functional;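 also: Luminescence-based dose-response confirmatory assay of SENP6 inhibition, following up an ultra-high-throughput screen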
T6 sequence (Q9GZR1 whole entry): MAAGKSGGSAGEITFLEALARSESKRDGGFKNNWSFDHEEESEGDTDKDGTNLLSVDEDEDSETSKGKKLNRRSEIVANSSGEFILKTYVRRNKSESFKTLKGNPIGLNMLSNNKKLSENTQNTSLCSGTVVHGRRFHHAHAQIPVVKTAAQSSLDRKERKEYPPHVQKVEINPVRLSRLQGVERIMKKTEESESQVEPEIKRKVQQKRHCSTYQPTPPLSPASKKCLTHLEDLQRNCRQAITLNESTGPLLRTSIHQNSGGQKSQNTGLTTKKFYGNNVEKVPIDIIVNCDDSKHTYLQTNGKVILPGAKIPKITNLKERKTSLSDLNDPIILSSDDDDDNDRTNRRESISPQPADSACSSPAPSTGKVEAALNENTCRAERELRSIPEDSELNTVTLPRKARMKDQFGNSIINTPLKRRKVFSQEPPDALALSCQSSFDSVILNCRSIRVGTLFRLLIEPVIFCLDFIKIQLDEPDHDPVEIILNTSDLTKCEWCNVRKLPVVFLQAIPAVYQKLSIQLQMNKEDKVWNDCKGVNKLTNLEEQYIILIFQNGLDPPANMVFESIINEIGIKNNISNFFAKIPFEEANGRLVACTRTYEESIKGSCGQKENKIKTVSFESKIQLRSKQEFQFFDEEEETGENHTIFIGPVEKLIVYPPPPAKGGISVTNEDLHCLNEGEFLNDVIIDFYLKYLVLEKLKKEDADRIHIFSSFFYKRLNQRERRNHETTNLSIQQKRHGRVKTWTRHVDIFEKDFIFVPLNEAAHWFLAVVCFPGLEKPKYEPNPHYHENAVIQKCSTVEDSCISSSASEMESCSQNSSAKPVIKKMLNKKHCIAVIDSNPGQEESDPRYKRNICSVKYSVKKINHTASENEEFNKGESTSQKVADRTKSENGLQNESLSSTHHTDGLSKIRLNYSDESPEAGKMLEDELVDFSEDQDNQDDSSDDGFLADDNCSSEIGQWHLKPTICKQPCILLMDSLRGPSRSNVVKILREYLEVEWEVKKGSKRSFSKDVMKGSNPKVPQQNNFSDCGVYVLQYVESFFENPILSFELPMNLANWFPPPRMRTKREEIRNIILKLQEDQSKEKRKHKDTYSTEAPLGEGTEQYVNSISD

[9] = target: T5, Oxysterols receptor LXR-beta; type: functional, cell-based; remark: listed apart in the source
[10] = target: T7, Sentrin-specific protease 8 (Homo sapiens, UniProt Q96LD8); type: functional;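 also: luminescence read-out of SENP8 inhibition, dose-response confirmation following an ultra-high-throughput screen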
T7 sequence (Q96LD8 whole entry): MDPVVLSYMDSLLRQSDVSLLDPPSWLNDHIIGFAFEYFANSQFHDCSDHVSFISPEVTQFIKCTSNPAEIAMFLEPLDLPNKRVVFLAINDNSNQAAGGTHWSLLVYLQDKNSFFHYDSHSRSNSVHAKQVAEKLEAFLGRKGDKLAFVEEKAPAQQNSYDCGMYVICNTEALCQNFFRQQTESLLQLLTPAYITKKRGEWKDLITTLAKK

[11] = OVCAR-3 cell viability loss – plate reader, dry powder samples, PAX8 inhibitor project, dose response (AID 743044); type: functional, cell-based
[12] = target: Paired box protein Pax-8 (Homo sapiens, UniProt Q06710); assay: PAX8 transcriptional activity inhibition in RMG-I – RMG-I cells, luciferase, cherry-pick, dose response (AID 687027); type: functional, cell-based;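 also: luciferase reporter driven by Pax8 target thyroperoxidase promoter measured by SteadyGlo luminescence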
Sequence of Paired box protein Pax-8 (Q06710 whole entry): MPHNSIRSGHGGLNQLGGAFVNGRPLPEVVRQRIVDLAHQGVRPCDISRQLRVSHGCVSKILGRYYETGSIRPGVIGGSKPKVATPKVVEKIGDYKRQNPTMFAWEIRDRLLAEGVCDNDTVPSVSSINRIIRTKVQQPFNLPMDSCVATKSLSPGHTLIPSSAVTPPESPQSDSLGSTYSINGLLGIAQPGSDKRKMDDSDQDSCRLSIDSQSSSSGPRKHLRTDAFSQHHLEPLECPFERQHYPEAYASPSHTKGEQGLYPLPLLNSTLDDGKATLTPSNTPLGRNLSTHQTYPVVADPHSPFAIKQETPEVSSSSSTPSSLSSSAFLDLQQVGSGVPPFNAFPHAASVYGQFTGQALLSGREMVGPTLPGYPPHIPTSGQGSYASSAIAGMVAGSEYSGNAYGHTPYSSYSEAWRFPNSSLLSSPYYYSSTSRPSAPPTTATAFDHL

[13] = cytotoxicity in MITF-independent A375 cells – cell-based, CellTiter-Glo luminescence, dry powder, set 4, counter-screen for MITF inhibitor project, dose response (AID 624364); type: functional; conditions: A-375;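 also: A375 melanoma cells are MITF independent so this is a counter screen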
[14] = viability loss in MITF-independent A375 cells – cell-based, CellTiter-Glo luminescence, dry powder, set 2, counter-screen for MITF inhibitor project, dose response (AID 624489); type: functional; conditions: A-375;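 also: actives are compounds lowering A375 viability meaning general cytotoxicity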
[15] = reduced cellular PGC1a acetyl-lysine signal – cell-based, cherry-picked samples, dose response (AID 720514); type: functional;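 also: potency may reflect raised or lowered acetylation signal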
[16] = P. falciparum Dd2 growth inhibitors, dose response, SYBR Green, cherry-picked samples (AID 1159567); type: functional, cell-based
[17] = growth inhibition of PfATP4-mutant resistant parasites – NITD609-resistant line, SYBR Green, dry powder, dose response (AID 1159571); type: functional, cell-based;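 also: parasites synchronized at ring stage by sorbitol before testing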
[18] = toxicity to human HepG2 hepatoma cells – cell-based, plate reader, dry powder samples, cytotoxicity control, dose response (AID 1159569); type: functional;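 also: inhibitor potency with signal falling toward the positive control level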
[19] = Dd2 malaria parasite growth inhibition potency – SYBR Green, dry powder samples, dose response (AID 1159566); type: functional, cell-based;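 also: potency for growth inhibition with lower SYBR green DNA signal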
[20] = growth inhibition of yeast DHODH-expressing 3D7 parasites – SYBR Green, dry powder samples, dose response (AID 1159570); type: functional, cell-based;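 also: parasite growth measured after 72 hours of compound exposure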

Cc1ccc(Nc2cc(C)nc3c(C)cccc23)cc1
AC50 [1]: > 30 µM (inactive) | EC50 [2]: 0.531 µM (active) | AC50 [3]: 34.4 µM (active)

CCOC(=O)Cc1csc(NC(=O)Cn2cnc3c2c(=O)n(C)c(=O)n3C)n1
AC50 [1]: > 30 µM (inactive)

Cc1ccc(-c2n[nH]c(Nc3ccccc3)n2)cc1
EC50 [4]: > 67.5 µM (inactive)

Cc1ccc(-c2nnc(Nc3ccccc3)[nH]2)cc1
IC50 [5]: 40.4 µM (active) | IC50 [6]: 7.36 µM (active) | EC50 [7]: > 67.5 µM (inactive) | IC50 [8]: > 100 µM (inactive) | EC50 [9]: > 67.5 µM (inactive) | IC50 [10]: > 100 µM (inactive)

C[C@H]1CN([C@@H](C)CO)C(=O)Cc2cc(NC(=O)Nc3ccc(F)cc3)ccc2O[C@H]1CN(C)Cc1ccc(Cl)c(Cl)c1
AC50 [11]: 32.5 µM (active) | AC50 [12]: 7.04 µM (active)

CN1CCN(C2=C(Nc3ccccc3)C(=O)c3ccccc3C2=O)CC1
AC50 [13]: 61.7 µM (active) | AC50 [14]: 24 µM (active)

C[C@@H]1CN([C@H](C)CO)C(=O)c2cccc(NC(=O)c3nc4ccccc4s3)c2O[C@@H]1CN(C)CC1CCCCC1
AC50 [15]: 27.1 µM (active)

N#C[C@@H]1[C@@H](c2ccc(C#Cc3ccc(F)cc3)cc2)[C@H](CO)N1C(=O)C1CCCC1
AC50 [16]: 2.53 µM (active) | AC50 [17]: 1.99 µM (active) | AC50 [18]: 25.5 µM (active) | AC50 [19]: 1.52 µM (active) | AC50 [20]: 1.82 µM (active)
